# Measured values reported in US20040132666A1, “Administration of free radical scavengers to prevent or treat ischemia-reperfusion injuries” (Oregon Health & Science University, priority 2002, published 2004).
# What was measured:
# [1] = system: middle cerebral artery occlusion (MCAO); assay: 60 minute transient MCAO in rats, infarcted area on TTC stained brain slices (Example 1); format: in vivo, rat
# Experimental: Twenty female Long Evans rats underwent 60 minute transient MCAO. The rats were anesthetized, intubated and mechanically ventilated using 2% Isoflurane, available from Abbott Laboratories, North Chicago, Ill., and oxygen mixture. The left common carotid artery (CCA) and the bifurcation were exposed via midline incision. The branches of the left external carotid artery (ECA) were coagulated, and the ECA stump was mobilized inferiorly, the left pterygopalatine artery was ligated. A blunt tipped 3 cm long segment of a 3-0 monofilament nylon suture, available from Dermalone, United States Surgical, Norwalk, Conn., was introduced into the left internal carotid artery via the left ECA stump, and advanced 2.0-2.2 cm distance from the bifurcation. Then the proximal CCA was ligated temporarily. After the defined occlusion time the animal was re-anesthetized using a mask. The ligation of the CCA was released, and the suture was pulled back and removed allowing reperfusion of the occluded segment. […] The animals were sacrificed 24 h later with intracardiac injection of Pentobarbital. […] The pictures were analyzed using the Scion Image for Windows software (based on NIH Image Software for Macintosh). The non-stained area was outlined, and the area was calculated, as a percentage of the stroked hemisphere. Data were analyzed and graphed using Microsoft Excel Software. […]
# [2] = system: middle cerebral artery occlusion; assay: Temporary (60 min) middle cerebral artery occlusion and 24 h reperfusion, total infarction volume by TTC staining (Example 2); format: in vivo, rat; conditions: for infarction volume: 60 min occlusion, 24 h reperfusion, mean ± SD
# [3] = rat, in vivo, iv, 1000 mg/kg
# [4] = Serum NAC concentration in rats 5 min post infusion
# [5] = system: ischemia-reperfusion injuries; assay: Single high dose versus multiple low doses of NAC against ischemia-reperfusion injuries; conditions: single high dose (400-1000 mg/kg) versus multiple low doses
# [6] = system: brain glutathione levels; conditions: 10 g/m^2 intraperitoneally twice daily for 3 days; cited from earlier work
Structure (SMILES),"infarction versus control group ([1]; 400 mg/kg i.v. 30 min before occlusion, slices 10 and 12 mm from frontal pole, significant only in last slice)","infarcted area smaller than in control group (mean) ([1]; 400 mg/kg i.v. over 15 min starting 30 min before occlusion, slices 6 and 8 mm from frontal pole, 24 h after 60 min MCAO) [%]","hematocrit after infusion (from 50%) ([2]; 2500 μl volume intravenous injection in 5 minutes, same for saline) [%]",infarction volume ([2]; Series A: 400 mg/kg i.v. -60 min to MCAO) [mm3],average reduction of total calculated infarction volume versus saline treated group ([2]; Series A: NAC 60 minutes before occlusion) [%],infarction volume ([2]; Series B: 400 mg/kg i.v. -30 min to MCAO) [mm3],average protection versus saline ([2]; Series B: NAC 30 minutes before occlusion) [%],infarction volume ([2]; Series C: 400 mg/kg i.v. at reperfusion (2 min after)) [mm3],"total volume of infarction versus saline treated group ([2]; Series C: NAC after reperfusion, p=0.84)","protection in comparison to saline controls ([2]; Series D: BSO treated, glutathione depleted animals, p=0.72)",toxicity [3],"transient decrease of mean arterial blood pressure (Long-Evans, rat, in vivo, iv) [%]","morbidity or mortality (stroke animals, intravenous 400 mg NAC in 5 min infusion)",serum NAC concentration ([4]; 400 mg/kg),serum NAC concentration ([4]; 1000 mg/kg) [mM],serum NAC concentration ([4]; about 140 mg/kg) [mM],effectiveness in preventing or treating ischemia-reperfusion injuries [5],infarction volume in comparison to other groups ([2]; 3 days of BSO pretreatment),reduction of brain glutathione levels [6]
"CC(=O)N[C@@H](CS)C(=O)O [NAC, N-acetylcysteine]",the infarction was smaller,38,30,143.40 ± 72,43,176.60 ± 69,34,156.41 ± 27,the difference was not significant,failed to provide significant protection,No toxicity was observed,10,did not cause significant morbidity or mortality,about 1.5 mM,~10,0.1 to 0.3,more effective,,
"CCCCS(=N)(=O)CCC(N)C(=O)O [BSO, L-buthionine-[S,R]-sulfoxamine]",,,,,,,,,,,,,,,,,,did not result in higher infarction volume,at least 50%
